Results reported in patent EP3057949B1, “SECONDARY ALCOHOL QUINOLINYL MODULATORS OF ROR GAMMA T” (Janssen Pharmaceutica NV, priority 2013, dated 2015).
Structures can show the parent of a compound that is named as a salt.

Columns and labels:
human RORγt LBD = target: T1, human RORγt LBD (Homo sapiens, UniProt P51449); assay: RORγt (LBD) Reporter Assay (GAL4 luciferase, HEK293T cells); type: cell-based; conditions: for inhibition at 6 µM: HEK-293T; for IC50: compounds for 24 hours
T1 construct: expressed in transfected cells; host or cells: HEK293T
T1 sequence (P51449 258-518): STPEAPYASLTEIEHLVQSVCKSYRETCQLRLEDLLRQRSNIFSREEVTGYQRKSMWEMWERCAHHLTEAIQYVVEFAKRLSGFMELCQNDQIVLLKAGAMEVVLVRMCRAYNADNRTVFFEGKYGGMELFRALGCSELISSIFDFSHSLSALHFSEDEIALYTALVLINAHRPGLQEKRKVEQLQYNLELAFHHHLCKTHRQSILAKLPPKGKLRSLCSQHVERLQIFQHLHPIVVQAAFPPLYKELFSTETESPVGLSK
Method: Compounds were assessed for RORgt functional modulation using either the RORgt ligand binding domain (LBD) reporter assay, or the RORgt full-length (FL) reporter assay.
A reporter assay was used to test functional activity of RORγt modulatory compounds on transcriptional activation driven by the RORγt LBD. Cells used in the assay were co-transfected with two constructs. The first construct, pBIND-RORγt LBD, contained the wild type human RORγt LBD fused to the DNA binding domain of the GAL4 protein. The second construct, pGL4.31 (Promega Cat no. C935A), contained multiple GAL4 responsive DNA elements upstream of firefly luciferase. […] The mutant construct was called pBIND-RORγt-AF2.
The pBIND vector contains the GAL4 DNA Binding Domain (GAL4 DBD) and the renilla luciferase gene under control of the SV40 promoter. Renilla luciferase expression serves as a control for transfection efficiency and cell viability.
The reporter assay was performed by transiently transfecting HEK293T cells with 5 µg of pBIND-RORγt LBD or pBIND-RORγt LBD-AF2 and 5 µg pGL4.31 (Promega Cat no. C935A) using Fugene 6 (Invitrogen Cat no. E2691) at a 1:6 ratio of DNA: Fugene 6 in a T-75 flask in which cells were at least 80% confluent. Twenty four hours after bulk transfection, cells were plated into 96-well plates at 50,000 cells/well in phenol-red free DMEM containing 5% Lipid Reduced FCS and Pen/Strep. Six hours after plating, cells were treated with compounds for 24 hours. Media was removed and cells were lysed with 50 µL 1x Glo Lysis Buffer (Promega). Dual Glo Luciferase Reagent (50 µL/well) was then added and firefly luciferase luminescence was read on an Envision after a ten minute incubation. Finally, Stop and Glo reagent (50 µL/well) was added and renilla luciferase luminescence was read on an Envision after a ten minute incubation. To calculate the effect of compounds on RORγt activity, the ratio of firefly to renilla luciferase was determined and plotted against compound concentration. Agonist compounds increase RORγt-driven luciferase expression, and antagonist or inverse agonist compounds decrease luciferase expression.

[1] = target: T2, human RORγt ligand binding domain (RORγt LBD) (Homo sapiens, UniProt P51449); assay: ThermoFluor® Assay (RORγt thermal shift binding); conditions: 0.065 mg/mL RORγt, 60 µM 1,8-ANS, pH 7.0; estimated from concentration response curves
T2 construct: His-tag (N); TurboTEV protease cleavage site (ENLYFQG) (N); made in house; host or cells: E. coli (pHIS1, modified pET vector)
T2 sequence (P51449 258-518): T1 sequence (P51449 258-518)
Method: This approach is applicable to a wide variety of systems, and rigorous in theoretical interpretation through quantitation of equilibrium binding constants (KD).
The shift in the melting point described as a ΔTm is proportional to the concentration and affinity of the ligand. The compound potency may be compared as a rank order of either ATm values at a single compound concentration or in terms of KD values, estimated from concentration response curves.
ThermoFluor® experiments were carried out using instruments owned by Janssen Research and Discovery, L.L.C. through its acquisition of 3-Dimensional Pharmaceuticals, Inc. 1,8-ANS (Invitrogen) was used as a fluorescent dye. Protein and compound solutions are dispensed into black 384-well polypropylene PCR microplates (Abgene) and overlayed with silicone oil (1 µL, Fluka, type DC 200) to prevent evaporation.
Bar-coded assay plates are robotically loaded onto a thermostatically controlled PCR-type thermal block and then heated at a typical ramp-rate of 1 °C/minute for all experiments. Fluorescence was measured by continuous illumination with UV light (Hamamatsu LC6) supplied via fiber optic and filtered through a band-pass filter (380-400 nm; >6 OD cutoff). Fluorescence emission of the entire 384-well plate was detected by measuring light intensity using a CCD camera (Sensys, Roper Scientific) filtered to detect 500 ± 25 nm, resulting in simultaneous and independent readings of all 384 wells. Images were collected at each temperature, and the sum of the pixel intensity in a given area of the assay plate was recorded versus temperature. Reference wells contained RORyt without compounds, and the assay conditions were as follows: • 0.065 mg/mL RORγt • 60 µM 1,8-ANS • 100 mM Hepes, pH 7.0 • 10 mM NaCl • 2.5 mM GSH • 0.002% Tween-20
Project compounds were arranged in a pre-dosed mother plate (Greiner Bio-one) wherein compounds are serially diluted in 100% DMSO by 1:2 from a high concentration of 10 mM over 12 columns within a series (column 12 is a reference well containing DMSO, no compound). The compounds were robotically dispensed directly into assay plates (1x = 46 nL) using a Hummingbird capillary liquid handling instrument (Digilab). Following compound dispense, protein and dye in buffer was added to achieve the final assay volume of 3 µL, followed by 1 µL of silicone oil.

Row | RORγt (LBD) Reporter Assay, % inhibition @ 6 µM (human RORγt LBD; 6 µM compound, 6 µM) [%] | Kd [1] [nM] | inhibition at 6 µM (human RORγt LBD; 6 µM compound) [%] | IC50 (human RORγt LBD) [nM] | SMILES
1 | 37 | – | – | – | COc1nc2ccc(C(O)c3cnc(C)n3C)cc2c(Cl)c1Cc1ccc(F)cc1 (single isomer, unassigned) [Example 8c]
2 | – | 290 | 98 | 510 | COc1nc2ccc(C(O)c3cncn3C)cc2c(Cl)c1Cc1ccc(C(F)(F)F)cc1 (single isomer, unassigned) [Example 18b, (4-Chloro-2-methoxy-3-(4-(trifluoromethyl)benzyl)quinolin-6-yl)(1-methyl-1H-imidazol-5-yl)methanol]
3 | – | 260 | 88 | 690 | Cc1ncc(C(O)c2ccc3nc(N4CCC4)c(Cc4ccc(-n5cccn5)cc4)c(Cl)c3c2)n1C (single isomer, unassigned) [Example 21b, {2-Azetidin-1-yl-4-chloro-3-[4-(1H-pyrazol-1-yl)benzyl]quinolin-6-yl}(1,2-dimethyl-1H-imidazol-5-yl)methanol]
4 | – | 180 | 40 | – | COc1nc2ccc(C(O)c3cnc(C)n3C)cc2c(Cl)c1Cc1ccc(F)cc1 (centres unmarked) [Example 8a]
5 | – | 71 | – | – | COc1nc2ccc(C(O)c3ccc(C)nc3C)cc2c(Cl)c1Cc1ccc(C(F)(F)F)cc1 (centres unmarked) [Example 14a, (4-Chloro-2-methoxy-3-(4-(trifluoromethyl)benzyl)quinolin-6-yl)(2,6-dimethylpyridin-3-yl)methanol]
6 | – | 74 | 101 | 43 | COc1nc2ccc(C(O)c3cnc(C)n3C)cc2c(Cl)c1Cc1ccc(C(F)(F)F)cc1 (centres unmarked) [Example 15a, (4-Chloro-2-methoxy-3-(4-(trifluoromethyl)benzyl)quinolin-6-yl)(1,2-dimethyl-1H-imidazol-5-yl)methanol]
7 | – | 64 | 99 | 310 | COc1nc2ccc(C(O)c3cnnn3C)cc2c(Cl)c1Cc1ccc(C(F)(F)F)cc1 (centres unmarked) [Example 17a, (4-Chloro-2-methoxy-3-(4-(trifluoromethyl)benzyl)quinolin-6-yl)(1-methyl-1H-1,2,3-triazol-5-yl)methanol]
8 | – | 240 | 96 | 380 | COc1nc2ccc(C(O)c3cncn3C)cc2c(Cl)c1Cc1ccc(C(F)(F)F)cc1 (centres unmarked) [Example 18a, (4-Chloro-2-methoxy-3-(4-(trifluoromethyl)benzyl)quinolin-6-yl)(1-methyl-1H-imidazol-5-yl)methanol]
9 | – | 200 | 91 | 380 | Cc1ncc(C(O)c2ccc3nc(N4CCC4)c(Cc4ccc(-n5cccn5)cc4)c(Cl)c3c2)n1C (centres unmarked) [Example 21a, {2-Azetidin-1-yl-4-chloro-3-[4-(1H-pyrazol-1-yl)benzyl]quinolin-6-yl)(1,2-dimethyl-1H-imidazol-5-yl)methanol]

More lines, now with the values behind:

Row | SMILES | RORγt (LBD) Reporter Assay, % inhibition @ 6 µM (human RORγt LBD; 6 µM compound, 6 µM) [%] | Kd [1] [nM] | inhibition at 6 µM (human RORγt LBD; 6 µM compound) [%] | IC50 (human RORγt LBD) [nM]
10 | Cc1noc(C)c1C(O)c1ccc2nc(Cl)c(-c3ccccc3)c(Cl)c2c1 (centres unmarked) [Example 1, (2,4-Dichloro-3-phenylquinolin-6-yl)(3,5-dimethylisoxazol-4-yl)methanol] | – | 550 | 48 | > 6000
11 | Cn1cncc1C(O)c1ccc2nc(Cl)c(-c3ccccc3)c(Cl)c2c1 (centres unmarked) [Example 2, (2,4-Dichloro-3-phenylquinolin-6-yl)(1-methyl-1H-imidazol-5-yl)methanol] | – | 1600 | 12 | > 6000
12 | Cn1cncc1C(O)c1ccc2nc(Cl)c(-c3ccccc3Cl)c(Cl)c2c1 (centres unmarked) [Example 3, (2,4-Dichloro-3-(2-chlorophenyl)quinolin-6-yl)(1-methyl-1H-imidazol-5-yl) methanol] | – | 450 | – | –
13 | Cc1cc(C(O)c2cncn2C)cc2c(Cl)c(-c3ccccc3)c(Cl)nc12 (centres unmarked) [Example 4, (2,4-Dichloro-8-methyl-3-phenylquinolin-6-yl)(1-methyl-1H-imidazol-5-yl)methanol•TFA] | – | 4900 | -1 | > 6000
14 | COc1nc2ccc(C(O)C3CCN(C(C)=O)CC3)cc2c(Cl)c1Cc1ccc(C(F)(F)F)cc1 (centres unmarked) [Example 6, (1-Acetylpiperidin4-yl){4-chloro-2-methoxy-3-[4-(trifluoromethyl)benzyl]quinolin-6-yl}methanol] | – | 220 | 95 | 790
15 | Cn1cncc1C(O)c1ccc2nc(Cl)c(Cc3ccc(-n4cccn4)cc3)c(Cl)c2c1 (centres unmarked) [Example 7, (3-(4-(1H-Pyrazol-1-y1)benzyl)-2,4-dichloroquinolin-6-yl)(1-methyl-1H-imidazol-5-yl)methanol] | – | 480 | 93 | ~2000
16 | COc1nc2c(C)cc(C(O)c3cncn3C)cc2c(Cl)c1Cc1ccc(S(C)(=O)=O)cc1 (centres unmarked) [Example 10] | – | 3000 | 59 | ~6000
17 | COc1nc2c(C)cc(C(O)c3cncn3C)cc2c(Cl)c1Cc1cccc(C(F)(F)F)c1 (centres unmarked) [Example 11, (4-Chloro-2-methoxy-8-methyl-3-(3-(trifluoromethyl)benzyl)quinolin-6-yl)(1-methyl-1H-imidazol-5-yl)methanol] | – | 150 | 24 | > 6000
18 | COc1nc2c(C)cc(C(O)c3cncn3C)cc2c(Cl)c1Cc1ccc(-n2cccn2)cc1 (centres unmarked) [Example 12, (3-(4-(1H-Pyrazol-1-yl)benzyl)-4-chloro-2-methoxy-8-methylquinolin-6-yl)(1-methyl-1H-imidazol-5-yl)methanole•TFA] | – | 600 | 92 | ~1000
19 | Cc1ncc(C(O)c2ccc3nc(Cl)c(-c4ccccc4)c(Cl)c3c2)n1C (centres unmarked) [Example 13, (2,4-Dichloro-3-phenylquinolin-6-yl)(1,2-dimethyl-1H-imidazol-5-yl)methanol] | – | 1200 | 43 | > 6000
20 | COc1nc2ccc(C(O)c3ccc(C)nc3C)cc2cc1Cc1ccc(C(F)(F)F)cc1 (centres unmarked) [Example 16, (2,6-Dimethylpyridin-3-yl)(2-methoxy-3-(4-(trifluoromethyl)benzyl)quinolin-6-yl)methanol] | – | 4800 | 88 | 1900
21 | COc1nc2ccc(C(O)c3oc(C)nc3C)cc2c(Cl)c1Cc1ccc(C(F)(F)F)cc1 (centres unmarked) [Example 19, (4-Chloro-2-methoxy-3-(4-(trifluoromethyl)benzyl)quinolin-6-yl)(2,4-dimethyloxazol-5-yl)methanol] | – | 350 | 79 | 240
